In this assay the test system is Mushroom tyrosinase. The assay can be described thus: Mushroom tyrosinase assay (conversion of L-Tyrosine to DOPAchrome). The assay is classed as biochemical. The settings on record: 25° C., 30 min, absorbance 492 nm. As to the method:
Mushroom Tyrosinase Assay. Mushroom tyrosinase and L-Tyrosine were obtained from Sigma-Aldrich, Inc. (St. Louis, Mo.). The enzyme activity was measured in buffer containing 100 mM phosphate buffer pH 6.8, 5% absolute ethanol, 2 micrograms/milliliter mushroom tyrosinase, and 0.2 mg/ml L-Tyrosine. The reaction (conversion of L-Tyrosine to DOPAchrome) was conducted in triplicates at 25° C. for 30 min, and absorbance was then measured at 492 nm. Kojic Acid was used as a positive control inhibitor in these assays. Percent change in tyrosinase activity relative to vehicle control was calculated.

The structures appear in SMILES notation.

With `Oc1ccc(C=NNC(=S)NCC2CCCO2)c(O)c1` (centres unmarked) [AV6989], the “Tyrosinase Inhibition (percent change in tyrosinase activity compared to DMSO vehicle control)” value by setting is: (concentration 0.001%) −36%; (concentration 0.01%) −75%.

These data come from patent publication US9566224B2, “Tyrosinase inhibitors” (Avon Products, Inc., priority 2013, dated 2017).
